Common to all, as to assay: KINOMEscan kinase binding assay (Eurofins/DiscoveRx), % Ctrl
Assay [1] addresses T1, kinases (Homo sapiens, UniProt P00533, DEL746-750).
T1 construct: purchased Eurofins/DiscoveRx; host or cells: E. coli BL21-derived host (T7 phage display) for most kinases; HEK-293 for the rest
The procedure, abridged: (§1)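 Read-out is qPCR of kinase eluted from ligand-coated streptavidin beads after 1 h room-temperature competition with test compound. Values are % Ctrl at the tested concentration, lower meaning tighter binding.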

For assay [2], the target named is T2, kinases (Homo sapiens, UniProt P00519, Q252H).
T2 construct: purchased Eurofins/DiscoveRx; host or cells: E. coli BL21-derived host (T7 phage display) for most kinases; HEK-293 for the rest
The procedure, abridged: as §1

In assay [3] the test system is kinases. The procedure, abridged:
as §1

Assay [4] concerns the target T3, kinases (Homo sapiens, UniProt P00533, G719S).
T3 construct: purchased Eurofins/DiscoveRx; host or cells: E. coli BL21-derived host (T7 phage display) for most kinases; HEK-293 for the rest
Summed up: as §1

Assay [5] has as its target T4, kinases (Homo sapiens, UniProt P00533, L858R).
T4 construct: purchased Eurofins/DiscoveRx; host or cells: E. coli BL21-derived host (T7 phage display) for most kinases; HEK-293 for the rest
The procedure, abridged: as §1

For assay [6], the target named is T5, kinases (Homo sapiens, UniProt P35916).
T5 construct: purchased Eurofins/DiscoveRx; host or cells: E. coli BL21-derived host (T7 phage display) for most kinases; HEK-293 for the rest
The procedure, abridged:
as §1

Assay [7] concerns the target T6, kinases (Homo sapiens, UniProt P17948).
T6 construct: purchased Eurofins/DiscoveRx; host or cells: E. coli BL21-derived host (T7 phage display) for most kinases; HEK-293 for the rest
The procedure, abridged: as §1

Where [8] appears, read: target EGFR(E746-A750del); 1 μM.
The mark [9] stands for this setting: target ABL1(Q252H)-nonphosphorylated; 1 μM.
The mark [10] stands for this setting: target ABL1(Q252H)-phosphorylated; 1 μM.
The mark [11] stands for this setting: target EGFR(L747-E749del, A750P); 1 μM.
Setting [12] is: target EGFR(L747-S752del, P753S); 1 μM.
[13] abbreviates: target EGFR(L747-T751del, Sins); 1 μM.

Structures are written as SMILES.

T6 sequence (P17948 27-1338): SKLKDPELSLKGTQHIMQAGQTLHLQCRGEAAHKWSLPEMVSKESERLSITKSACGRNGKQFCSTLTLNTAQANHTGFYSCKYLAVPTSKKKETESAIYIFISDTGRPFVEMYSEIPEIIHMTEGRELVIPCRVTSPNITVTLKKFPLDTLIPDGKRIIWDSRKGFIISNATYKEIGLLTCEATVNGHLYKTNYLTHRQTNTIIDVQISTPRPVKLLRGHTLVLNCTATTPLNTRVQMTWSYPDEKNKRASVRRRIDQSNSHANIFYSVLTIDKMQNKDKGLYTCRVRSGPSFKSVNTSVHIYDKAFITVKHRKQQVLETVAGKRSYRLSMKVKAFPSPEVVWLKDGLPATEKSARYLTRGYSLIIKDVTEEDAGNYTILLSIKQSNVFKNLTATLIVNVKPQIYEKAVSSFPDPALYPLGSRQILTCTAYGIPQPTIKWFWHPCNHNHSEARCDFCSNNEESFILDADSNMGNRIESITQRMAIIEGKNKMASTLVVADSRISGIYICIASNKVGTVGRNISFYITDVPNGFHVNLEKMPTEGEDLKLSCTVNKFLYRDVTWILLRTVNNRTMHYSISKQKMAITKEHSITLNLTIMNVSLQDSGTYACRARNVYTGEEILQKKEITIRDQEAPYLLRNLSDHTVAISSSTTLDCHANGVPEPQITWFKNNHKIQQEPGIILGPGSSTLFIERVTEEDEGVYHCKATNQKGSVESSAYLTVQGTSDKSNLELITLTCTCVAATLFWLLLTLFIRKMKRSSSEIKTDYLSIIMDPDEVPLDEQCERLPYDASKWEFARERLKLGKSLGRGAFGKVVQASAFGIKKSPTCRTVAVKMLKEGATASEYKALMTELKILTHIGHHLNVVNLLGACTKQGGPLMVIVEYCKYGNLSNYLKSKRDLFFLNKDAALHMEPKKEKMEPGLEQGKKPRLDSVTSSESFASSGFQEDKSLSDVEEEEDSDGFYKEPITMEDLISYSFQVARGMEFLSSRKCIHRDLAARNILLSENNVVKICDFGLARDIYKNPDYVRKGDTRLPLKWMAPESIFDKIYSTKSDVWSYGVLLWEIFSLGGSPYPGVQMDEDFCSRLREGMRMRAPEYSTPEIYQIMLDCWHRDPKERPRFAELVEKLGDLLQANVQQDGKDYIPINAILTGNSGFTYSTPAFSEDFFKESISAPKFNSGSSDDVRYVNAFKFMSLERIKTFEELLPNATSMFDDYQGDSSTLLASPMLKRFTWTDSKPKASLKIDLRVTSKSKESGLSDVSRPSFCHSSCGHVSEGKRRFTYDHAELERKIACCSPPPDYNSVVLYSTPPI
T5 sequence (P35916 25-1363): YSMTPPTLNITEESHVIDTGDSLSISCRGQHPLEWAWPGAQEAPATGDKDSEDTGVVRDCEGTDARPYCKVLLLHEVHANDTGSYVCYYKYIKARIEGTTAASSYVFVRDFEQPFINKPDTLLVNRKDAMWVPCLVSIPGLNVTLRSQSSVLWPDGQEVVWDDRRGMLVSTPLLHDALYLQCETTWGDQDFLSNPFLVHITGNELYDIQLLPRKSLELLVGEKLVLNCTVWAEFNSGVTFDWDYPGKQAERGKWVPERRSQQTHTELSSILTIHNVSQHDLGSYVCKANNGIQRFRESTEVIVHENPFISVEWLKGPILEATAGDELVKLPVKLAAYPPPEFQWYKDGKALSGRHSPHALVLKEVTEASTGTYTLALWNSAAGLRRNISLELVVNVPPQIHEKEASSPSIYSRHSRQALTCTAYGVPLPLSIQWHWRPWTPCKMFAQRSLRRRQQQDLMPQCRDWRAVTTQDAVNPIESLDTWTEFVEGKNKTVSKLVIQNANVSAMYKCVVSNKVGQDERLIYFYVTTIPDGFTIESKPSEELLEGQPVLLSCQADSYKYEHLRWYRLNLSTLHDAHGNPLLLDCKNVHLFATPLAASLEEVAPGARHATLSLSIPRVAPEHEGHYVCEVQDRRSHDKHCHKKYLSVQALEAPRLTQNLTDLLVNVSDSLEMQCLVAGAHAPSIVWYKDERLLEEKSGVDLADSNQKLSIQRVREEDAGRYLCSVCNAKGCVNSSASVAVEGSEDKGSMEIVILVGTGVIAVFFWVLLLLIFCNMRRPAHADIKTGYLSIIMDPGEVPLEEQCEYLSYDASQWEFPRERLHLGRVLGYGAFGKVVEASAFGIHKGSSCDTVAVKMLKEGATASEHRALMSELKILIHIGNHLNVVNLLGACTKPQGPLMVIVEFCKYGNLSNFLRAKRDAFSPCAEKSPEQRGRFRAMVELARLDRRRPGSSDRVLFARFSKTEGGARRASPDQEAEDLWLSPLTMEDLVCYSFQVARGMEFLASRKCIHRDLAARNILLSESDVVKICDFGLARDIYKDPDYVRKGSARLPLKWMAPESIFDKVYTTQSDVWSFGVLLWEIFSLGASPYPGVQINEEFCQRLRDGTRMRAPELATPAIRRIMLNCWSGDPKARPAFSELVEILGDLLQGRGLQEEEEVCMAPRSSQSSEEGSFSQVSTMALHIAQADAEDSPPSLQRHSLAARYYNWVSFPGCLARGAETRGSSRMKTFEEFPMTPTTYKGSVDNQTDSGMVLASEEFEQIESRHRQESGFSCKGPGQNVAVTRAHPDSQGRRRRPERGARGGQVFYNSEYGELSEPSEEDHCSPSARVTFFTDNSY

`Cc1cc2c([nH]1)/C=C1\C(=O)Nc3ccc(cc31)-c1c(noc1C)CNCCN(C)C2=O` [Ex. 139, [3a(4)Z]-6,9,16-trimethyl-10,11,12,13-tetrahydro-2H-1,17-(ethanediylidene)[1,2]oxazolo[4,3-m]dipyrrolo[3,2-f:3′,4′-i][1,4]diazacyclopentadecine-3,8(5H,9H)-dione]: the “% Ctrl, EGFR(E746-A750del)” value on kinases [1] (setting [8]) turned out to be 72 % Ctrl. Further, on kinases [2] (setting [9]), the “% Ctrl, ABL1(Q252H)-nonphosphorylated” value came to 7.8 % Ctrl. In addition, the “% Ctrl, ABL1(Q252H)-phosphorylated” value at kinases [2] (setting [10]) was 5.1 % Ctrl. The “% Ctrl, EGFR(L747-E749del, A750P)” value in the assay on kinases [3] (setting [11]) came out at 71 % Ctrl. The “% Ctrl, EGFR(L747-S752del, P753S)” value in the assay with kinases [3] (setting [12]) worked out at 77 % Ctrl. Also, in the assay with kinases [3] (setting [13]), the “% Ctrl, EGFR(L747-T751del, Sins)” value is on record as 81 % Ctrl. Moreover, the “% Ctrl, FLT3(ITD)” value in the assay on kinases [3] (target FLT3(ITD); 1 μM) was determined as 8.1 % Ctrl. Further, the “% Ctrl, FLT3(ITD, D835V)” value in the assay on kinases [3] (target FLT3(ITD, D835V); 1 μM) amounted to 1.2 % Ctrl. The “% Ctrl, FLT3(ITD, F691L)” value in the assay on kinases [3] (target FLT3(ITD, F691L); 1 μM) stood at 0.9 % Ctrl. The “% Ctrl, EGFR(G719S)” value at kinases [4] (target EGFR(G719S); 1 μM) is 84 % Ctrl. Also, on kinases [5] (target EGFR(L858R); 1 μM), the “% Ctrl, EGFR(L858R)” value amounted to 80 % Ctrl. Also, the “% Ctrl, FLT4” value on kinases [6] (target FLT4; 1 μM) is listed as 23 % Ctrl. In addition, the “% Ctrl, FLT1” value on kinases [7] (target FLT1; 1 μM) came to 65 % Ctrl.
In the case of `Cc1cc2c([nH]1)/C=C1\C(=O)Nc3cnc(cc31)-c1cnn(C)c1CN(C)CCN(C)C2=O` [Ex. 172, [3a(4)Z]-6,9,12,14-tetramethyl-9,10,11,12,13,14-hexahydro-17,1-(azenometheno)pyrazolo[4,3-m]dipyrrolo[3,2-f:3′,4′-i][1,4]diazacyclopentadecine-3,8(2H,5H)-dione], on kinases [1] (1 μM; target EGFR(E746-A750del)), the “% Ctrl, EGFR(E746-A750del)” value is 43 % Ctrl. At kinases [2] (1 μM; target ABL1(Q252H)-nonphosphorylated), the “% Ctrl, ABL1(Q252H)-nonphosphorylated” value was found to be 0.3 % Ctrl. Further, the “% Ctrl, ABL1(Q252H)-phosphorylated” value on kinases [2] (1 μM; target ABL1(Q252H)-phosphorylated) is listed as 0.1 % Ctrl. Besides, the “% Ctrl, EGFR(L747-E749del, A750P)” value in the assay on kinases [3] (1 μM; target EGFR(L747-E749del, A750P)) was determined as 62 % Ctrl. Moreover, in the assay with kinases [3] (1 μM; target EGFR(L747-S752del, P753S)), the “% Ctrl, EGFR(L747-S752del, P753S)” value is listed as 52 % Ctrl. Moreover, the “% Ctrl, EGFR(L747-T751del, Sins)” value in the assay on kinases [3] (1 μM; target EGFR(L747-T751del, Sins)) is 43 % Ctrl. Moreover, the “% Ctrl, FLT3(ITD)” value with kinases [3] (1 μM; target FLT3(ITD)) was found to be 1.1 % Ctrl. The “% Ctrl, FLT3(ITD, D835V)” value in the assay on kinases [3] (1 μM; target FLT3(ITD, D835V)) came out at 0.3 % Ctrl. Besides, in the assay on kinases [3] (1 μM; target FLT3(ITD, F691L)), the “% Ctrl, FLT3(ITD, F691L)” value was determined as 0.3 % Ctrl. On kinases [4] (1 μM; target EGFR(G719S)), the “% Ctrl, EGFR(G719S)” value worked out at 82 % Ctrl. Further, at kinases [5] (1 μM; target EGFR(L858R)), the “% Ctrl, EGFR(L858R)” value was 48 % Ctrl. Besides, the “% Ctrl, FLT4” value at kinases [6] (1 μM; target FLT4) was 1.7 % Ctrl. Further, the “% Ctrl, FLT1” value at kinases [7] (1 μM; target FLT1) is given as 26 % Ctrl.
In the case of `Cc1cc2c([nH]1)/C=C1\C(=O)Nc3ccc(cc31)-c1c(C)nn(C)c1COCCN(C)C2=O` [Ex. 146, [3a(4)Z]-6,9,14,16-tetramethyl-10,11,13,14-tetrahydro-2H-1,17-(ethanediylidene)pyrazolo[4,3-m]dipyrrolo[3,2-f:3′,4′-i][1,4]oxazacyclopentadecine-3,8(5H,9H)-dione], the “% Ctrl, EGFR(E746-A750del)” value at kinases [1] (setting [8]) worked out at 73 % Ctrl. Besides, the “% Ctrl, ABL1(Q252H)-nonphosphorylated” value at kinases [2] (setting [9]) is listed as 74 % Ctrl. Besides, on kinases [2] (setting [10]), the “% Ctrl, ABL1(Q252H)-phosphorylated” value was determined as 93 % Ctrl. Also, the “% Ctrl, EGFR(L747-E749del, A750P)” value in the assay on kinases [3] (setting [11]) is listed as 38 % Ctrl. For the same molecule, the “% Ctrl, EGFR(L747-S752del, P753S)” value in the assay with kinases [3] (setting [12]) amounted to 60 % Ctrl. The “% Ctrl, EGFR(L747-T751del, Sins)” value in the assay with kinases [3] (setting [13]) came to 77 % Ctrl. In the assay on kinases [3] (target FLT3(ITD); 1 μM), the “% Ctrl, FLT3(ITD)” value amounted to 4.7 % Ctrl. In addition, the “% Ctrl, FLT3(ITD, D835V)” value in the assay with kinases [3] (target FLT3(ITD, D835V); 1 μM) is given as 0.3 % Ctrl. Besides, the “% Ctrl, FLT3(ITD, F691L)” value in the assay with kinases [3] (target FLT3(ITD, F691L); 1 μM) was 3.2 % Ctrl. The “% Ctrl, EGFR(G719S)” value on kinases [4] (target EGFR(G719S); 1 μM) stood at 84 % Ctrl. Besides, the “% Ctrl, EGFR(L858R)” value at kinases [5] (target EGFR(L858R); 1 μM) worked out at 88 % Ctrl. For the same molecule, the “% Ctrl, FLT4” value at kinases [6] (target FLT4; 1 μM) is given as 78 % Ctrl. In addition, the “% Ctrl, FLT1” value on kinases [7] (target FLT1; 1 μM) stood at 100 % Ctrl.

The values above are taken from patent US20230257396A1, “MACROCYCLES AND THEIR USE” (BLOSSOMHILL THERAPEUTICS, INC., priority 2020, published 2023).
